{"source": "patent US5686065A", "about": "“Topical siloxane sunscreen compositions having enhanced performance and safety” (Special Advanced Biomaterials, Inc., priority 1991, dated 1997)", "key": {"microbes on skin": {"system": "microbes on skin", "settings": "general statement, no test given; cited from earlier work"}, "[1]": {"protocol": "Ten microliters of each of (a), (b), (c), (d), 2-ethyl-1,3-hexanediol (EHD), N,N-diethyl-m-toluamide (DT), or N,N-diethoxy-m-toluamide (DOT) were applied to separate 7 cm^2 patches of greentree python snake skin once daily for 3 days. At the end of the application period, the patches were washed five times each day for three days with 20 μl of 50/50 ethanol/water using a 3 cm diameter cylinder to enable collection of the washings. The amount of insect repellent washed off was quantified using reverse phase HPLC, C^14 radiocounting or AT/FTIR. The percentage remaining bound after 5, 10, and 15 washes was designated as 100×(amount applied-amount washed off)/(amount applied) and was averaged for 5 samples."}, "[2]": {"assay": "Humectant remaining bound to snake skin after washing", "parameters": "species or system greentree python snake", "protocol": "In the case of (b), 10 μl of ETS was also applied immediately after solution (b)."}, "[3]": {"settings": "by infants; general statement; cited from earlier work"}, "[4]": {"system": "normal skin bacteria (results for S. aureus reported)", "assay": "Quantitation of microbial growth on human skin (expanded flora)", "format": "in vivo", "protocol": "The third test involved growing normal skin bacteria by covering the skin with an occlusive dressing such as Saran Wrap (this is referred to as expanding the flora). Prior to expanding the flora, the skin test sites were treated with the test or control solutions as described above. The flora was then expanded for 24 hours, followed by quantitating the bacteria growth. This was done by washing an area of skin with liquid growth medium and spreading the washing on an agar plate. After the bacteria grew the number colonies were counted (Table 8).\n(§1) Each result was averaged for samples."}, "S. aureus [5]": {"system": "S. aureus", "assay": "Zone of inhibition on agar of treated snake skin patches", "format": "cell-based", "settings": "24 hours", "protocol": "The patches of snake skin were assayed for antimicrobial activity using 3 methods: (1) zone of antimicrobial activity on agar due to diffusion, (2) quantitation of microbial growth in solution mixing with patch, and (3) quantitation of microbial growth on human skin. The first method was a standard zone of inhibition study in which the bacteria was streaked onto an agar plate, the disk containing the test material was placed on the plate, and then the bacteria were allowed to grow for 24 hours.\nas §1"}, "S. aureus [6]": {"system": "S. aureus", "assay": "Quantitation of microbial growth in solution mixing with treated snake skin patch", "format": "cell-based", "settings": "for Microbe Growth/Solution after 5 washes / Microbe Growth/Solution after 15 washes / Microbe Growth/Solution after 10 washes: S. aureus, treated snake skin, 24 hours", "protocol": "In the second test, tubes containing liquid growth medium were inoculated with bacteria, and then the test disk was placed in the tube. The bacteria was allowed to grow for 24 hours and then the number of bacteria per ml was quantified either by light reflectance or by removing a small volume and streaking on an agar plate. The latter method was followed by allowing the bacteria to grow and then counting the colonies (Table 7).\nas §1"}, "[7]": {"parameters": "species or system greentree python snake", "protocol": "Ten microliters (a), (b), (c), (d), AT or ethanol/cyclomethicone vehicle was applied separately to a 7 cm^2 patch of greentree python snake skin once daily for 3 days or to a 7 cm^2 patch of shaved rabbit skin. At the end of the application period, the patches were washed five times each day for three days with 20 μl of 50/50 ethanol/water using a 3 cm diameter cylinder to enable collection of the washings. The amount of skin protectant washed off was quantitated using reverse phase HPLC, C^14 radiocounting or AT/FTIR. The percentage remaining bound after 5, 10, and 15 washes was designated as 100×(amount applied-amount washed off)/(amount applied) and was averaged for the 5 samples."}, "[8]": {"assay": "Modified Draise test: erythema by salicylic acid on treated rabbit skin", "format": "in vivo", "settings": "in words, from Table 10", "protocol": "The skin test on rabbits was essentially a modified Draise test for skin in which unabraded skin was studied on partially occluded sites. The skin irritation study was started following skin treatment by one of the test compounds above. In this test, after the compound was applied to the skin, a known skin irritant, 10 μl of 5% salicylic acid in a 50/50 by volume mixture of ethanol/water, was applied once a day for 3 days. The skin was rated for erythema using the scale of 0--no erythema to 4--severe erythema."}, "[9]": {"settings": "snake skin, insect repellent, 50/50 ethanol/water washes"}, "[10]": {"settings": "human skin, flora expanded 24 hours, S. aureus"}}, "note": "Like-named read-outs stand apart in the source and are kept apart here.", "data": [{"molecule": "[H]/N=C(\\N/C(=N/[H])NCCCCCCNC(=N)NC(=N)Nc1ccc(Cl)cc1)Nc1ccc(Cl)cc1", "note": "[Chlorhexidene, Chlorhexidine]", "values": [{"measurement": "antimicrobial effectiveness on skin", "setting": "microbes on skin", "value": "very effective"}, {"measurement": "toxicity / side effects of topical antimicrobial", "setting": "microbes on skin", "value": "causes severe skin drying"}]}, {"molecule": "CCON(OCC)C(=O)c1cccc(C)c1", "note": "[DOT, N,N-diethoxy-m-toluamide]", "values": [{"measurement": "% bound after 5 washes", "setting": "[1]", "value": 6, "unit": "%"}, {"measurement": "% bound after 10 washes", "setting": "[1]", "value": 1, "unit": "%"}, {"measurement": "% bound after 15 washes", "setting": "[1]", "value": 1, "unit": "%"}]}, {"molecule": "CCN(CC)C(=O)c1cccc(C)c1", "note": "[DT, N,N-diethyl-m-toluamide]", "values": [{"measurement": "% bound after 5 washes", "setting": "[1]; [9]", "value": 10, "unit": "%"}, {"measurement": "% bound after 10 washes", "setting": "[1]; [9]", "value": 5, "unit": "%"}, {"measurement": "% bound after 15 washes", "setting": "[1]; [9]", "value": 2, "unit": "%"}]}, {"molecule": "CCCC(O)C(CC)CO", "note": "(centres unmarked) [EHD, 2-ethyl-1,3-hexanediol]", "values": [{"measurement": "% bound after 5 washes", "setting": "[1]", "value": 7, "unit": "%"}, {"measurement": "% bound after 10 washes", "setting": "[1]", "value": 2, "unit": "%"}, {"measurement": "% bound after 15 washes", "setting": "[1]", "value": 2, "unit": "%"}]}, {"molecule": "OCC(O)CO", "note": "[GL, Glycerol]", "values": [{"measurement": "% bound after 5 washes", "setting": "[2]", "value": 1, "unit": "%"}, {"measurement": "% bound after 10 washes", "setting": "[2]", "value": 0, "unit": "%"}, {"measurement": "% bound after 15 washes", "setting": "[2]", "value": 0, "unit": "%"}]}, {"molecule": "Oc1c(Cl)cc(Cl)c(Cl)c1Cc1c(O)c(Cl)cc(Cl)c1Cl", "note": "[HCP, Hexachlorophene]", "values": [{"measurement": "absorption", "setting": "[3]", "value": "rapidly absorbed by infants"}, {"measurement": "toxicity / side effects of topical antimicrobial", "setting": "microbes on skin", "value": "highly toxic"}, {"measurement": "Microbe Growth/on Skin after 0 washes", "setting": "[4]; [10]", "value": 0, "unit": "CFU"}, {"measurement": "Microbe Growth/on Skin after 5 washes", "setting": "[4]; [10]", "value": "10^2 CFU"}, {"measurement": "Microbe Growth/on Skin after 15 washes", "setting": "[4]; [10]", "value": "10^5 CFU"}, {"measurement": "Zone of Inhibition after 5 washes", "setting": "S. aureus [5]", "value": 18, "unit": "mm"}, {"measurement": "Zone of Inhibition after 10 washes", "setting": "S. aureus [5]", "value": 0, "unit": "mm"}, {"measurement": "Zone of Inhibition after 15 washes", "setting": "S. aureus [5]", "value": 0, "unit": "mm"}, {"measurement": "Microbe Growth/Solution after 5 washes", "setting": "S. aureus [6]", "value": 0, "unit": "CFU"}, {"measurement": "Microbe Growth/Solution after 15 washes", "setting": "S. aureus [6]", "value": "10^3 CFU"}]}, {"molecule": "O=C(O)CC(O)C(=O)O", "note": "(centres unmarked) [MA, Malic acid]", "values": [{"measurement": "Microbe Growth/on Skin after 5 washes", "setting": "[4]; [10]", "value": "10^5 CFU"}, {"measurement": "Microbe Growth/on Skin after 15 washes", "setting": "[4]; [10]", "value": "10^5 CFU"}, {"measurement": "Zone of Inhibition after 5 washes", "setting": "S. aureus [5]", "value": 15, "unit": "mm"}, {"measurement": "Zone of Inhibition after 10 washes", "setting": "S. aureus [5]", "value": 0, "unit": "mm"}, {"measurement": "Zone of Inhibition after 15 washes", "setting": "S. aureus [5]", "value": 0, "unit": "mm"}, {"measurement": "Microbe Growth/Solution after 5 washes", "setting": "S. aureus [6]", "value": 0, "unit": "CFU"}, {"measurement": "Microbe Growth/Solution after 10 washes", "setting": "S. aureus [6]", "value": "10^2 CFU"}, {"measurement": "Microbe Growth/Solution after 15 washes", "setting": "S. aureus [6]", "value": "10^3 CFU"}]}, {"molecule": "[O-][n+]1ccccc1S", "note": "[PYR, Pyrithione]", "values": [{"measurement": "Microbe Growth/on Skin after 5 washes", "setting": "[4]; [10]", "value": "10^4 CFU"}, {"measurement": "Microbe Growth/on Skin after 15 washes", "setting": "[4]; [10]", "value": "10^5 CFU"}, {"measurement": "Zone of Inhibition after 5 washes", "setting": "S. aureus [5]", "value": 10, "unit": "mm"}, {"measurement": "Zone of Inhibition after 10 washes", "setting": "S. aureus [5]", "value": 0, "unit": "mm"}, {"measurement": "Zone of Inhibition after 15 washes", "setting": "S. aureus [5]", "value": 0, "unit": "mm"}, {"measurement": "Microbe Growth/Solution after 5 washes", "setting": "S. aureus [6]", "value": 0, "unit": "CFU"}, {"measurement": "Microbe Growth/Solution after 10 washes", "setting": "S. aureus [6]", "value": "10^2 CFU"}, {"measurement": "Microbe Growth/Solution after 15 washes", "setting": "S. aureus [6]", "value": "10^3 CFU"}]}, {"molecule": "NC(=O)NC1NC(=O)NC1=O", "note": "(centres unmarked) [allantoin, Allantoin]", "values": [{"measurement": "adherence to / retention on skin", "setting": "[7]", "value": "enhanced when applied with a polymerizing siloxane"}, {"measurement": "protection from skin erythema by salicylic acid", "setting": "[8]", "value": "does provide some protection from skin erythema by salicylic acid, this protection is lost if the skin is washed"}]}, {"molecule": "CCO[Si](CCCN)(OCC)OCC", "note": "[aminofunctional silane coupling agent, Aminopropyltriethoxysilane]", "values": [{"measurement": "antibacterial activity on human skin", "setting": "[4]; in words, from Table 8", "value": "inhibitory activity on bacterial growth on human skin"}, {"measurement": "microbial inhibitory activity on the skin", "setting": "[4]; in words, no data at the place", "value": "substantial microbial inhibitory activity on the skin"}, {"measurement": "microbiocidal activity", "setting": "S. aureus [6]; in words, from Table 7", "value": "not bactericidal"}]}, {"molecule": "O=C(Nc1ccc(Cl)cc1)Nc1ccc(Cl)c(Cl)c1", "note": "[trichlorocarban]", "values": [{"measurement": "antimicrobial effectiveness on skin", "setting": "microbes on skin", "value": "relatively ineffective"}]}, {"molecule": "Oc1cc(Cl)ccc1Oc1ccc(Cl)cc1Cl", "note": "[triclosan, Triclosan]", "values": [{"measurement": "antimicrobial effectiveness on skin", "setting": "microbes on skin", "value": "relatively ineffective"}]}, {"molecule": "Hyaluronic acid [HA]", "values": [{"measurement": "% bound after 5 washes", "setting": "[2]", "value": 5, "unit": "%"}, {"measurement": "% bound after 10 washes", "setting": "[2]", "value": 1, "unit": "%"}, {"measurement": "% bound after 15 washes", "setting": "[2]", "value": 0, "unit": "%"}]}, {"molecule": "allantion-mono(triethoxy)siloxy ester [Example 6 (d)]", "values": [{"measurement": "% bound after 5 washes", "setting": "[7]", "value": 47, "unit": "%"}, {"measurement": "% bound after 10 washes", "setting": "[7]", "value": 36, "unit": "%"}, {"measurement": "% bound after 15 washes", "setting": "[7]", "value": 21, "unit": "%"}]}]}
